Test results from patent publication US7115545B1, “Tricyclic benzoylpyrazole derivatives used as a herbicide” (BASF Aktiengesellschaft, priority 1999, dated 2006).

What was measured:
Chenopodium album = assay: greenhouse post-emergence herbicidal test; type: in vivo; conditions: post-emergence method, application rates of 0.5 or 0.25 kg/ha, Chenopodium album (lambsquarters)
From the text: (§1) The seeds of the test plants were sown separately for each species. For post-emergence treatment, the test plants were first grown to a plant height of from 3 to 15 cm, depending on the plant habit, and only then treated with the active compounds which had been suspended or emulsified in water. For this purpose, the test plants were either sown directly and grown in the same containers, or they were first grown separately as seedlings and transplanted into the test containers a few days prior to the treatment. The application rate for the post-emergence treatment was 0.5 or 0.25 kg of a.s./ha. Depending on the species, the plants were kept at 10–25° C. or 20–35° C. The test period extended over 2 to 4 weeks. During this time, the plants were tended, and their response to the individual treatments was evaluated. Evaluation was carried out using a scale from 0 to 100. 100 means no emergence of the plants, or complete destruction of at least the above-ground parts, and 0 means no damage, or normal course of growth. The plants used in the greenhouse trials were of the following species: [table]

Veronica ssp. = assay: greenhouse post-emergence herbicidal test; type: in vivo; conditions: post-emergence method, application rates of 0.5 or 0.25 kg/ha
From the text: as §1

Setaria viridis = assay: greenhouse post-emergence herbicidal test; type: in vivo; conditions: post-emergence method, application rates of 0.5 or 0.25 kg/ha, Setaria viridis (green foxtail)
From the text: as §1

Solanum nigrum = assay: greenhouse post-emergence herbicidal test; type: in vivo; conditions: post-emergence method, application rates of 0.5 or 0.25 kg/ha, Solanum nigrum (black nightshade)
From the text: as §1

Echinochloa crusgalli = assay: greenhouse post-emergence herbicidal test; type: in vivo; conditions: post-emergence method, application rates of 0.5 or 0.25 kg/ha, Echinochloa crusgalli (barnyardgrass)
From the text: as §1

**Q.** With Cn1ncc(C(=O)c2ccc(S(C)(=O)=O)c3c2CC2CON=C32)c1OC(=O)c1ccccc1 (stereo not drawn) [compound 2.2, (5-Phenylcarbonyloxy-1-methyl-1H-pyrazol-4-yl)-(8-methyl-sulfonyl-3a,4-dihydro-3H-indeno[1,2-c]isoxazol-5-yl)methanone] as the molecule, how does the melting point read?
**A.** 86 to 93 °C

**Q.** What about the herbicidal activity (Chenopodium album) of the same molecule?
**A.** very good activity

**Q.** What about the herbicidal activity (Veronica ssp.) of the same molecule?
**A.** very good activity

**Q.** What about the herbicidal activity (Setaria viridis) of the same molecule?
**A.** very good activity

**Q.** And the herbicidal activity (Solanum nigrum)?
**A.** very good activity

**Q.** What about the herbicidal activity (Echinochloa crusgalli) of the same molecule?
**A.** very good activity
